Test results taken from patent publication US20040242869A1, “Semicarbazides and their uses” (priority 2001, published 2004).

COC(=O)Nc1cccc2c1C(=O)c1c-2n[nH]c1-c1ccc(OC)cc1 [Example 11, 3-(4-Methoxyphenyl)-5-methoxycarbonylamino-2H-indeno-[1,2-c]pyrazol-4-one]
melting point: > 300 °C

COc1ccc(-c2[nH]nc3c2C(=O)c2c(NC(=O)NN4CCOCC4)cccc2-3)cc1 [Example 4, 1-[3-(4-methoxy-phenyl)-4-oxo-2,4-dihydro-indeno[1,2-c]pyrazol-5-yl]-3-morpholin-4-yl-urea]
melting point: 290 to 291 °C

COc1ccc(-c2[nH]nc3c2C(=O)c2c(NC(=O)CN4CCC(CN)CC4)cccc2-3)cc1 [Example 9, 2-(4-aminomethyl-piperidin-1-yl)-N-[3-(4-methoxy-phenyl)-4-oxo-2,4-dihydro-indeno[1,2-c]pyrazol-5-yl]-acetamide]
melting point: > 300 °C

COc1ccc(-c2[nH]nc3c2C(=O)c2c(NC(N)=O)cccc2-3)cc1 [Example 5, [3-(4-methoxy-phenyl)-4-oxo-2,4-dihydro-indeno[1,2-c]pyrazol-5-yl]-urea]
melting point: 267 to 269 °C
